From article PMC4264242, “Androgen Receptor Antagonists and Anti-Prostate Cancer Activities of Some Newly Synthesized Substituted Fused Pyrazolo-, Triazolo- and Thiazolo-Pyrimidine Derivatives” (International Journal of Molecular Sciences, 2014)

Tested on: castrated immature rats
Assay: In vivo anti-androgenic activity in castrated immature rats treated with testosterone propionate
Set-up: species or system rat
Excerpt: […] male Wistar rats were obtained from the Animal House Colony, Research Institute of Ophthalmology, Giza, Egypt. Prepubertal male rats aged 3 weeks were castrated using the scrotal route under ether anesthesia.

## CC(O)(CS(=O)(=O)c1ccc(F)cc1)C(=O)Nc1ccc(C#N)c(C(F)(F)F)c1 (centres unmarked) [Bicalutamide, reference compound]
Rattus norvegicus, castrated immature rats, TP 0.5 mg/kg s.c., compound p.o., read-out: ED50, in vivo anti-androgen activity
  ED50: 1.6 mg/kg
Inhibition of TP effect (TP 0.5 mg/kg s.c. once daily for 5 days), tested compound 10-30 mg/kg p.o.
  % (Inhibition), in vivo anti-androgen activity: 75%
